PubChem BioAssay AID248 (DTP/NCI, 2004)
“And” between values parts separate entries of the source, which are not always exact repeats. Identical values can stand only once. Toxic doses and inconclusive results are not listed. Rule as the data show it: active = T/C of 150% or more; inactive = T/C below 125%.

Tested on: L1210 leukemia ip in BDF1 mice, survival T/C
Experiment: NCI In Vivo Anticancer Drug Screen. Data for tumor model L1210 Leukemia (intraperitoneal) in B6D2F1 (BDF1) mice
Conditions: endpoint: mean survival time, higher = longer survival
Summary of the method: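 Mice bearing the transplanted tumor received compound or vehicle. Survival of the treated group was divided by that of the vehicle-treated control group to give the ratio.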

[1] = dose: 100.0 mg/kg/injection, schedule: Q01DX001 (ip), vehicle: saline
[2] = dose: 200.0 mg/kg/injection, schedule: Q01DX001 (ip), vehicle: saline
[3] = dose: 400.0 mg/kg/injection, schedule: Q01DX001 (ip), vehicle: saline
[4] = dose: 100.0 mg/kg/injection, schedule: Q01DX009 (ip), vehicle: saline
[5] = dose: 100.0 mg/kg/injection, schedule: Q04DX003 (ip), vehicle: saline
[6] = dose: 200.0 mg/kg/injection, schedule: Q01DX009 (ip), vehicle: saline
[7] = dose: 200.0 mg/kg/injection, schedule: Q04DX003 (ip), vehicle: saline
[8] = dose: 400.0 mg/kg/injection, schedule: Q01DX009 (ip), vehicle: saline
[9] = dose: 400.0 mg/kg/injection, schedule: Q04DX003 (ip), vehicle: saline
[10] = dose: 25.0 mg/kg/injection, schedule: Q01DX009 (ip), vehicle: saline with Tween-80
[11] = dose: 100.0 mg/kg/injection, schedule: Q04DX003 (ip), vehicle: saline with Tween-80
[12] = dose: 100.0 mg/kg/injection, schedule: Q04DX002 (ip), vehicle: saline
[13] = dose: 200.0 mg/kg/injection, schedule: Q04DX002 (ip), vehicle: saline
[14] = dose: 300.0 mg/kg/injection, schedule: Q01DX001 (ip), vehicle: saline
[15] = dose: 400.0 mg/kg/injection, schedule: Q04DX002 (ip), vehicle: saline
[16] = dose: 100.0 mg/kg/injection, schedule: Q04DX002 (ip), vehicle: saline with Tween-80
[17] = dose: 200.0 mg/kg/injection, schedule: Q04DX002 (ip), vehicle: saline with Tween-80
[18] = dose: 100.0 mg/kg/injection, schedule: Q04DX003 (ip), vehicle: Klucel (hydroxypropylcellulose) (HPC)
[19] = dose: 200.0 mg/kg/injection, schedule: Q04DX003 (ip), vehicle: Klucel (hydroxypropylcellulose) (HPC)
[20] = dose: 400.0 mg/kg/injection, schedule: Q04DX003 (ip), vehicle: Klucel (hydroxypropylcellulose) (HPC)
[21] = dose: 100.0 mg/kg/injection, schedule: Q01DX009 (ip), vehicle: saline with Tween-80
[22] = dose: 200.0 mg/kg/injection, schedule: Q01DX009 (ip), vehicle: saline with Tween-80
[23] = dose: 400.0 mg/kg/injection, schedule: Q01DX009 (ip), vehicle: saline with Tween-80
[24] = dose: 100.0 mg/kg/injection, schedule: Q01DX009 (ip), vehicle: Klucel (hydroxypropylcellulose) (HPC)

Measured: T/C

CC(=O)OC1COC(n2cnc3c(=S)nc[nH]c32)C(OC(C)=O)C1OC(C)=O (configuration not stated)
inactive: dose: 100.0 mg/kg/injection, schedule: Q01DX001 (ip), vehicle: other 107 % of control | [1] 94 % of control | dose: 200.0 mg/kg/injection, schedule: Q01DX001 (ip), vehicle: other 90 % of control | [2] 93 % of control | dose: 400.0 mg/kg/injection, schedule: Q01DX001 (ip), vehicle: other 96 % of control | [3] 96 % of control

CCOC(=O)CN1CCC(C(=O)OC)CC1
inactive: [4] 96 % of control | [5] 112 % of control | [6] 98 % of control | [7] 124 % of control | [8] 112 % of control | [9] 96 % of control

Cc1ccc(-n2c(=S)[nH]c3ccc(C)cc3c2=O)cc1
inactive: [10] 87 % of control | [11] 87 % of control

CN(C)CCCNc1c2ccccc2nc2ccccc12
inactive: dose: 5.0 mg/kg/injection, schedule: Q01DX001 (ip), vehicle: saline 109 % of control | dose: 10.0 mg/kg/injection, schedule: Q01DX001 (ip), vehicle: saline 104 % of control | dose: 20.0 mg/kg/injection, schedule: Q01DX001 (ip), vehicle: saline 98 % of control | dose: 40.0 mg/kg/injection, schedule: Q01DX001 (ip), vehicle: saline 91 % of control

CCCOC(=O)C(C)(O)C(Cl)c1ccccc1 (configuration not stated)
inactive: dose: 37.5 mg/kg/injection, schedule: Q01DX009 (ip), vehicle: Klucel (hydroxypropylcellulose) (HPC) 96 % of control | dose: 50.0 mg/kg/injection, schedule: Q01DX001 (ip), vehicle: saline 104 % of control | dose: 58.0 mg/kg/injection, schedule: Q01DX001 (ip), vehicle: saline 108 % of control | dose: 75.0 mg/kg/injection, schedule: Q01DX009 (ip), vehicle: Klucel (hydroxypropylcellulose) (HPC) 100 % of control | dose: 88.0 mg/kg/injection, schedule: Q01DX001 (ip), vehicle: saline 107 % of control | [1] 103 % of control | [12] 109 % of control and 114 % of control | dose: 133.0 mg/kg/injection, schedule: Q01DX001 (ip), vehicle: saline 103 % of control | dose: 150.0 mg/kg/injection, schedule: Q01DX009 (ip), vehicle: Klucel (hydroxypropylcellulose) (HPC) 104 % of control | [2] 106 % of control and 109 % of control | [13] 117 % of control | [14] 98 % of control | dose: 300.0 mg/kg/injection, schedule: Q01DX009 (ip), vehicle: Klucel (hydroxypropylcellulose) (HPC) 104 % of control | [3] 96 % of control | [15] 105 % of control and 118 % of control

CN/N=C/c1ccccc1
inactive: dose: 12.5 mg/kg/injection, schedule: Q01DX009 (ip), vehicle: saline with Tween-80 102 % of control | [10] 107 % of control | dose: 50.0 mg/kg/injection, schedule: Q01DX009 (ip), vehicle: saline with Tween-80 97 % of control and 112 % of control | [16] 95 % of control | [17] 92 % of control

Cc1ccc(C)c(Cl)c1Cl
inactive: dose: 75.0 mg/kg/injection, schedule: Q01DX009 (ip), vehicle: saline sonified 98 % of control | [5] 103 % of control | dose: 150.0 mg/kg/injection, schedule: Q01DX009 (ip), vehicle: saline sonified 103 % of control | [7] 108 % of control | dose: 300.0 mg/kg/injection, schedule: Q01DX009 (ip), vehicle: saline sonified 99 % of control | [9] 103 % of control

COc1ccc(Cl)cc1NS(=O)(=O)c1ccc(Cl)cc1[N+](=O)[O-]
inactive: [4] 96 % of control | [6] 94 % of control | [8] 100 % of control

CCC(=O)Nc1ccccc1OC
inactive: [18] 100 % of control | [19] 115 % of control | [20] 102 % of control

CSc1n[nH]c(=O)[nH]c1=S
inactive: [1] 96 % of control | [2] 101 % of control | [3] 95 % of control

CS(=O)(=O)OCC(OS(C)(=O)=O)C(COS(C)(=O)=O)OS(C)(=O)=O (configuration not stated)
inactive: [21] 91 % of control | [11] 92 % of control | [22] 100 % of control | dose: 200.0 mg/kg/injection, schedule: Q04DX003 (ip), vehicle: saline with Tween-80 96 % of control | [23] 96 % of control | dose: 400.0 mg/kg/injection, schedule: Q04DX003 (ip), vehicle: saline with Tween-80 96 % of control

CCOC(=O)/C=C/SCCCC(=O)O
inactive: [21] 96 % of control | [22] 88 % of control

CCCCOC(=O)C1OC1c1ccccc1 (configuration not stated)
inactive: [21] 88 % of control | [16] 90 % of control | [22] 95 % of control | [17] 88 % of control | [23] 95 % of control | dose: 400.0 mg/kg/injection, schedule: Q04DX002 (ip), vehicle: saline with Tween-80 102 % of control

Cc1cc(C)c(F)[c]([Hg][Br])c1N
inactive: dose: 12.5 mg/kg/injection, schedule: Q01DX009 (ip), vehicle: Klucel (hydroxypropylcellulose) (HPC) 96 % of control | dose: 37.5 mg/kg/injection, schedule: Q01DX001 (ip), vehicle: Klucel (hydroxypropylcellulose) (HPC) 94 % of control | dose: 50.0 mg/kg/injection, schedule: Q01DX009 (ip), vehicle: Klucel (hydroxypropylcellulose) (HPC) 96 % of control | [24] 89 % of control

CSc1ccnc2c1ncn2C1OC(CO)C(O)C1O (configuration not stated)
inactive: dose: 100.0 mg/kg/injection, schedule: Q01DX001 (ip), vehicle: carboxymethylcellulose (CMC) 98 % of control | dose: 200.0 mg/kg/injection, schedule: Q01DX001 (ip), vehicle: carboxymethylcellulose (CMC) 104 % of control | dose: 400.0 mg/kg/injection, schedule: Q01DX001 (ip), vehicle: carboxymethylcellulose (CMC) 96 % of control

Cc1nc[nH]c(=O)c1CCC1OCCO1
inactive: [5] 93 % of control | [7] 98 % of control | [9] 98 % of control

CN(C)Cc1cc(Cl)cc(Cc2cc(Cl)cc(CN(C)C)c2O)c1O
inactive: [1] 100 % of control | [5] 93 % of control | [2] 94 % of control | [7] 88 % of control | [3] 96 % of control | [9] 95 % of control

C[n+]1c(-c2ccc(Cl)c(Cl)c2)c2cc([N+](=O)[O-])ccc2c2ccccc21
inactive: [5] 95 % of control | [7] 93 % of control | [9] 97 % of control

CC(=O)CC(=O)Nc1ccc2ccccc2c1
inactive: [24] 98 % of control | [18] 92 % of control | [19] 97 % of control | [20] 92 % of control

S=C(Cc1cc(Cl)ccc1Cl)N1CCOCC1
inactive: dose: 100.0 mg/kg/injection, schedule: Q04DX002 (ip), vehicle: Klucel (hydroxypropylcellulose) (HPC) 95 % of control | dose: 200.0 mg/kg/injection, schedule: Q04DX002 (ip), vehicle: Klucel (hydroxypropylcellulose) (HPC) 109 % of control | dose: 400.0 mg/kg/injection, schedule: Q04DX002 (ip), vehicle: Klucel (hydroxypropylcellulose) (HPC) 98 % of control

CCOC(=O)NCC(CCCN1CCOCC1)(c1cccc2ccccc12)C(C)CC (configuration not stated)
inactive: [12] 102 % of control | [13] 106 % of control | [15] 97 % of control

CO/C(=C\c1ccc(OC)cc1)C(=O)O
inactive: [24] 93 % of control | [18] 100 % of control | dose: 200.0 mg/kg/injection, schedule: Q01DX009 (ip), vehicle: Klucel (hydroxypropylcellulose) (HPC) 90 % of control | [19] 101 % of control | dose: 400.0 mg/kg/injection, schedule: Q01DX009 (ip), vehicle: Klucel (hydroxypropylcellulose) (HPC) 93 % of control | [20] 100 % of control

Cc1c(O)ccc(O)c1C
inactive: [1] 100 % of control | [2] 95 % of control

NC1=CCNN1
inactive: dose: 75.0 mg/kg/injection, schedule: Q01DX001 (ip), vehicle: saline 106 % of control | dose: 150.0 mg/kg/injection, schedule: Q01DX001 (ip), vehicle: saline 93 % of control | [14] 94 % of control
